{"source": "patent US20070092469A1", "about": "“Topically applied Glucosamine Sulfate and all its related, precursor, and derivative compounds significantly increases the skin's natural produciton of hyaluronic acid for the rejuvenation of healthier younger-looking skin; while PhosphatidylCholine is required to replace its deficiency caused by …” (priority 2005, published 2007)", "key": {"[1]": {"conditions": "simple diffusion, not active transport; cited from earlier work"}, "[2]": {"conditions": "topical; cited from earlier work"}, "[3]": {"system": "solar lentinges", "conditions": "cited from earlier work"}, "[4]": {"system": "skin's Hyaluronic Acid", "assay": "Live clinical human experiments, one side of face, neck and hands treated, other side base (placebo) lotion", "format": "in vivo", "conditions": "5% concentration, topical, versus placebo lotion on other side", "from_the_text": "In examining the prior art we found our patent to be unique: • 1. U.S. Pat. No. 5,391,373 (Mausner) is distinguished by its failure to use an adequate amount of Glucosamine in order to achieve the substrate concentration for the enzyme Hyaluronate Synthase to produce a sufficient quantity and concentration of Hyaluronic Acid necessary to achieve any meaningful change in the texture of the skin, including its ability to hold onto sufficient water to increase internal hydration. Their patent claims: “1. (d) about 0.001% to 0.1% of a carbohydrate-based complex comprising dextran, glycine, and Glucosamine;”. […] Their minimum range amount claimed is calculated as: 0.001% (0.00001) times 5% (0.05%) equals 0.0000005, which is 0.00005% and equals 5 one-hundred-thousandths of a gram per 100 milliliters, and is totally inconsequential for having any positive effect. […]"}, "[5]": {"conditions": "oral dose of Glucosamine Sulfate, humans; cited from earlier work"}, "[6]": {"conditions": "topical; cited from earlier work", "remark": "listed apart in the source"}, "[7]": {"conditions": "oral, dog; cited from earlier work"}}, "note": "Where two headings read alike, the source gives them in different places."}
{"compound": "CC(=O)N[C@H]1C(O)O[C@H](CO)[C@@H](O)[C@@H]1O", "note": "(stereo partly drawn) [N-acetylglucosamine, N-acetyl-D-Glucosamine]", "values": [{"measurement": "oral absorption", "setting": "[1]", "result": "not well absorbed orally"}, {"measurement": "absorption through the skin", "setting": "[2]", "result": "very poorly absorbed through the skin"}]}
{"compound": "Ascorbyl Glucosamine", "values": [{"measurement": "effect on skin (\"liver spot\") pigmentation", "setting": "[3]", "result": "no positive effects"}]}
{"compound": "N[C@H]1C(O)O[C@H](CO)[C@@H](O)[C@@H]1O.O=S(=O)(O)O", "note": "(stereo partly drawn) [Glucosamine Sulfate]", "values": [{"measurement": "production of the skin's Hyaluronic Acid", "setting": "[4]", "result": "markedly enhancing"}, {"measurement": "absorption through the skin", "setting": "[2]", "result": "much better absorbed into the body via the skin"}, {"measurement": "absorbed", "setting": "[5]", "result": "about 90%"}]}
{"compound": "hyaluronic acid [600,000 Dalton molecular weight hyaluronic acid]", "values": [{"measurement": "absorption into the skin", "setting": "[6]", "result": "only a few percent"}]}
{"compound": "N[C@@H]1[C@@H](O)[C@H](O)[C@@H](CO)O[C@@H]1O", "note": "[Glucosamine, 2-amino-2-deoxy-alpha-D-glucose]", "values": [{"measurement": "absorbed", "setting": "[7]", "result": 87, "unit": "%"}]}
{"compound": "hyaluronic acid [250,000 Dalton sized hyaluronic acid]", "values": [{"measurement": "absorption into the skin", "setting": "[6]", "result": "very low percentage"}]}
